# Values joined by “and” are separate entries in the source; they are usually repeats but may differ in a detail not shown here. Identical values can stand only once.
# How the values were obtained:
# Leishmania = assay: Activity of synthesized metabolites against Leishmania; assay type: cell-based
# T. cruzi = tested on: T. cruzi; set-up: method as in PMID 25740547; conditions: cited from earlier work
# [1] = tested on: L. donovani intracellular amastigote stage; set-up: method as in PMID 25740547; conditions: intracellular amastigote stage of L. donovani; cited from earlier work
# L. infantum = assay: Promastigote back-transformation assay on organs of treated hamsters; assay type: in vivo, golden hamsters
# Source text: Female golden hamsters (5 per treatment group) were infected through intracardiac administration of 2x10^7 L. infantum amastigotes obtained from the spleen of a heavily infected donor hamster. […] After 5-day treatment period, followed by a 10-day wash out period, animals were sacrificed, and parasites burden assessed in the three target organs (liver, spleen, and bone-marrow). For this assessment, organs of individual animals were weighed, except for bone-marrow thus only providing a semi-quantitative evaluation only. Impression smears were Giemsa-stained for microscopic evaluation of amastigote burden, expressed as LDU (= mean number of amastigotes/cell × organ weight in mg) and the results were expressed as a percentage reduction compared to the burdens in the control group (vehicle as placebo). For evaluating the presence of viable residual burden after treatment, a promastigote back-transformation assay was conducted. This consisted of the incubation at ambient temperature of aseptically collected pieces of spleen or liver tissue in 1 mL of promastigote back-transformation medium in 24-well plates. For the bone-marrow, resected femurs were flushed with 1 mL medium. The medium consists of HOMEM pH 6.0 prepared as described elsewhere ([5]) with 10% fetal bovine serum (Gibco), 2.5% penicillin/streptomycin and 1% gentamicin (Merck). A qualitative assessment of the presence of promastigotes was made after 3 and 5 days of incubation and a score was attributed (+, ++ or +++) based on parasite density in the positive wells.
# Supplementary Materials and methods
# Promastigote transformation assay
# For evaluating the presence of viable residual burdens after treatment, a promastigote back-transformation assay is conducted. This test consists of the incubation at ambient temperature of aseptically collected pieces of spleen or liver tissue in 1 mL of promastigote back-transformation medium in 24-well plates. For the bone-marrow, resected femurs are flushed with 1 mL medium. The medium consists of HOMEM pH 6.0 prepared as described elsewhere (1) with 10% fetal bovine serum (Gibco) and 2.5% penicillin/streptomycin and 1% gentamicin (Merck). A qualitative assessment of the presence of promastigotes is made after 3 and 5 days of incubation and a score is attributed (+, ++ or +++) based on parasite density in the positive […]
# Supplementary Information on Tables
# L. infantum MHOM/FR/96/LEM3323 Cl4 was originally obtained from a French HIV-positive patient (Languedoc area in Southern France) and provided by Dr. Laurence Lachaud of the Centre National de Référence des Leishmanioses (CNRL), Montpellier, France. The miltefosine and paromomycin resistant lines (LEM3323 Cl4 MIL-R and PMM-R) were obtained by successive in vitro selection cycles on intracellular amastigotes (2, 3)
# [2] = 40 mg/kg qd, 5 days, individual animals 1-10
structure (smiles),measurement,setting,value
Cc1[nH]c2nc(N)nc(C)c2c1-c1ccc(C#N)c(O)c1O [DNDI0003578765],"activity against Leishmania, in words",Leishmania,inactive
Cc1nc(N)nc2[nH]c(CO)c(-c3ccc(C#N)c4c3OCO4)c12 [DNDI0003671146],"activity against Leishmania, in words",Leishmania,inactive
COc1ccccc1-c1c(C)[nH]c2nc(N)nc(C)c12 [TCMDC-143610],EC50,T. cruzi,0.13 µM
same,EC50,[1],15.8 µM
"CCCCCCCCCCCCCCCCOP(=O)([O-])OCC[N+](C)(C)C [miltefosine, reference compound]","emergence of viable promastigotes from recovered organs, in words",L. infantum; 40 mg/kg,more than half of those following miltefosine administration at 40 mg/kg were positive
same,"parasite score, Bone-marrow",L. infantum; [2],++ (4×) and + (4×) and - (2×)
same,"parasite score, Liver",L. infantum; [2],+ (3×) and - (7×)
same,"parasite score, Spleen",L. infantum; [2],+ (5×) and ++ (4×) and -

# From paper PMC7615677 (Science translational medicine, 2023)
